From ChEMBL document CHEMBL3856260, “A synergistic antitumor effect of polyphyllin I and formosanin C on hepatocarcinoma cells” (Bioorg Med Chem Lett, 2016)
Active and inactive are the calls of the source. The calls are words filed in the database; no cut-off is given here.

Columns and labels:
HepG2 [1] = test: Decrease in cyclin E level in human HepG2 cells at 1 uM incubated for 24 hrs Western blot analysis in presence of FC; format: functional, cell-based
HepG2 [2] = test: Induction of cytochrome c release in human HepG2 cells by Western blot analysis in presence of FC; format: functional, cell-based
HepG2 [3] = test: Increase in p21 level in human HepG2 cells at 1 uM incubated for 24 hrs by Western blot analysis in presence of FC; format: functional, cell-based
[4] = Cytotoxicity against human HepG2 cells assessed as combination index at ED30 using 1:1 compound to formosanin C incubated for 24 hrs by MTT assay; format: functional
HepG2 [5] = test: Induction of chromatin compaction in human HepG2 cells at 0.5 uM after 24 hrs by Hoechst 33258 staining-based fluorescence microscopic analysis in presence of formosanin C; format: functional, cell-based
HepG2 [6] = test: Induction of cytochrome c release in human HepG2 cells by Western blot analysis; format: functional, cell-based
HepG2 [7] = test: Induction of nuclear fragmentation in human HepG2 cells at 0.5 uM after 24 hrs by Hoechst 33258 staining-based fluorescence microscopic analysis in presence of formosanin C; format: functional, cell-based
[8] = Cytotoxicity against human HepG2 cells assessed as combination index at ED90 using 1:1 compound to formosanin C incubated for 24 hrs by MTT assay; format: functional
[9] = Cell cycle arrest in human HepG2 cells assessed as accumulation at G2 phase at 1 uM after 24 hrs by propidium iodide staining-based flow cytometry(reference value: 2.04%); format: functional
[10] = Cytotoxicity against human Bel7402 cells after 24 hrs by MTT assay; format: functional, cell-based; details: Bel-7402, 24 h
HepG2 [11] = test: Induction of apoptosis in human HepG2 cells assessed as downregulation of NF-kappaB […] level at 1 uM incubated for 24 hrs by RT-PCR analysis in presence of formosanin C; format: functional, cell-based
HepG2 [12] = test: Induction mitochondrial membrane potential changes in human HepG2 cells at 1 uM after 24 hrs by rhodamine 123 staining-based flow cytometry in presence of formosanin C (reference value: 23.8+/-2.3%); format: functional
[13] = Induction of apoptosis in human HepG2 cells assessed as upregulation of caspase3 level at 1 uM incubated for 24 hrs by Western blot analysis in presence of formosanin C; format: functional, cell-based
[14] = Induction of apoptosis in human HepG2 cells assessed as upregulation of caspase3 mRNA level at 1 uM incubated for 24 hrs by RT-PCR analysis in presence of formosanin C; format: functional, cell-based
[15] = Cytotoxicity against human HepG2 cells assessed as combination index at ED50 using 1:1 compound to formosanin C incubated for 24 hrs by MTT assay; format: functional
[16] = Cytotoxicity against human Bel7402 cells assessed as combination index at ED90 using 1:1 compound to formosanin C incubated for 24 hrs by MTT assay; format: functional, Bel-7402
HepG2 [17] = test: Antimigratory activity in human HepG2 cells at 1 uM after 24 hrs by wound healing assay in presence of FC; format: functional, cell-based
[18] = Cell cycle arrest in human HepG2 cells assessed as accumulation at S phase at 1 uM after 24 hrs by propidium iodide staining-based flow cytometry in presence of formosanin C (reference value: 42.33%); format: functional
[19] = Induction of apoptosis in human HepG2 cells assessed as upregulation of p53 mRNA level at 1 uM incubated for 24 hrs by RT-PCR analysis in presence of formosanin C; format: functional, cell-based
HepG2 [20] = test: Decrease in CDK2 level in human HepG2 cells at 1 uM incubated for 24 hrs by Western blot analysis in presence of formosanin C relative to relative to polyphyllin I alone treatment; format: functional, cell-based
HepG2 [21] = test: Induction of apoptosis in human HepG2 cells assessed as downregulation of Bcl2 mRNA level at 1 uM incubated for 24 hrs by RT-PCR analysis in presence of formosanin C; format: functional, cell-based
HepG2 [22] = test: Increase in p21 mRNA level in human HepG2 cells at 1 uM incubated for 24 hrs by RT-PCR analysis in presence of formosanin C relative to polyphyllin I alone treatment; format: functional, cell-based
[23] = Induction of apoptosis in human HepG2 cells assessed as upregulation of Bax mRNA level at 1 uM incubated for 24 hrs by RT-PCR analysis in presence of formosanin C; format: functional, cell-based
[24] = Cell cycle arrest in human HepG2 cells assessed as accumulation at G2 phase at 1 uM after 24 hrs by propidium iodide staining-based flow cytometry in presence of formosanin C (reference value: 2.04%); format: functional
[25] = Cell cycle arrest in human HepG2 cells assessed as accumulation at G1 phase at 1 uM after 24 hrs by propidium iodide staining-based flow cytometry(reference value: 55.62%); format: functional
[26] = Cytotoxicity against human HepG2 cells after 24 hrs by MTT assay; format: functional, cell-based; details: HepG2, 24 h
HepG2 [27] = test: Induction of apoptosis in human HepG2 cells at 1 uM after 24 hrs by propidium iodide staining-based flow cytometry(reference value: 3.01%); format: functional
HepG2 [28] = test: Change in PCNA mRNA level in human HepG2 cells at 1 uM incubated for 24 hrs by RT-PCR analysis in presence of formosanin C relative to formosanin C treatment; format: functional, cell-based
HepG2 [29] = test: Induction of chromatin compaction in human HepG2 cells at 1 uM after 24 hrs by Hoechst 33258 staining-based fluorescence microscopic analysis; format: functional, cell-based
HepG2 [30] = test: Induction of apoptosis in human HepG2 cells at 1 uM after 24 hrs by propidium iodide staining-based flow cytometry in presence of formosanin C (reference value: 3.01%); format: functional
HepG2 [31] = test: Decrease in CDK2 level in human HepG2 cells at 1 uM incubated for 24 hrs by Western blot analysis in presence of FC; format: functional, cell-based
[32] = Suppression of MMP9 expression in human HepG2 cells assessed as reduction in enzyme activity at 1 uM after 24 hrs by zymographic analysis in presence of FC; format: functional, cell-based
HepG2 [33] = test: Change in PCNA mRNA level in human HepG2 cells at 1 uM incubated for 24 hrs by RT-PCR analysis in presence of formosanin C relative to polyphyllin I alone treatment; format: functional, cell-based
[34] = Cell cycle arrest in human HepG2 cells assessed as accumulation at S phase at 1 uM after 24 hrs by propidium iodide staining-based flow cytometry(reference value: 42.33%); format: functional
HepG2 [35] = test: Induction mitochondrial membrane potential changes in human HepG2 cells at 1 uM after 24 hrs by rhodamine 123 staining-based flow cytometry (reference value: 23.8+/-2.3%); format: functional
HepG2 [36] = test: Induction of nuclear fragmentation in human HepG2 cells at 1 uM after 24 hrs by Hoechst 33258 staining-based fluorescence microscopic analysis; format: functional, cell-based
[37] = Induction of apoptosis in human HepG2 cells assessed as upregulation of p53 level at 1 uM incubated for 24 hrs by Western blot analysis in presence of formosanin C; format: functional, cell-based
[38] = Cytotoxicity against human Bel7402 cells assessed as combination index at ED30 using 1:1 compound to formosanin C incubated for 24 hrs by MTT assay; format: functional, Bel-7402
HepG2 [39] = test: Induction of Bax translocation from cytosol to mitochondria in human HepG2 cells by Western blot analysis in presence of FC; format: functional, cell-based
[40] = Cytotoxicity against human Bel7402 cells assessed as combination index at ED50 using 1:1 compound to formosanin C incubated for 24 hrs by MTT assay; format: functional, Bel-7402
[41] = Suppression of MMP9 expression in human HepG2 cells at 1 uM after 24 hrs by Western blot analysis in presence of FC; format: functional, cell-based
[42] = Cytotoxicity against human Bel7402 cells assessed as combination index at ED75 using 1:1 compound to formosanin C incubated for 24 hrs by MTT assay; format: functional, Bel-7402
HepG2 [43] = test: Induction of Bax translocation from cytosol to mitochondria in human HepG2 cells by Western blot analysis; format: functional, cell-based
[44] = Induction of apoptosis in human HepG2 cells assessed as upregulation of Bax level at 1 uM incubated for 24 hrs by Western blot analysis in presence of formosanin C; format: functional, cell-based
[45] = Cytotoxicity against human HepG2 cells assessed as combination index at ED75 using 1:1 compound to formosanin C incubated for 24 hrs by MTT assay; format: functional
HepG2 [46] = test: Increase in cyclin E mRNA level in human HepG2 cells at 1 uM incubated for 24 hrs by RT-PCR analysis in presence of formosanin C relative to polyphyllin I alone treatment; format: functional, cell-based
[47] = Cell cycle arrest in human HepG2 cells assessed as accumulation at G1 phase at 1 uM after 24 hrs by propidium iodide staining-based flow cytometry in presence of formosanin C (reference value: 55.62%); format: functional

Question: With `C[C@@H]1CC[C@@]2(OC1)O[C@H]1C[C@H]3[C@@H]4CC=C5C[C@@H](O[C@@H]6O[C@H](CO)[C@@H](O[C@@H]7O[C@@H](CO)[C@H](O)[C@H]7O)[C@H](O)[C@H]6O[C@@H]6O[C@@H](C)[C@H](O)[C@@H](O)[C@H]6O)CC[C@]5(C)[C@H]4CC[C@]3(C)[C@H]1[C@@H]2C` as the molecule, how does the Activity (HepG2 [1]) read?
Answer: Active

Question: And the Activity (HepG2 [2])?
Answer: Active

Question: What about the Activity (HepG2 [3]) of the same molecule?
Answer: Active

Question: And the CI [4]?
Answer: 0.62

Question: And the Activity (HepG2 [5])?
Answer: Active

Question: And the Activity (HepG2 [6])?
Answer: Active

Question: What about the Activity (HepG2 [7]) of the same molecule?
Answer: Active

Question: And the CI [8]?
Answer: 0.54

Question: What about the Activity [9] of the same molecule?
Answer: 2.15%

Question: And the IC50 [10]?
Answer: 4.74 µM

Question: And the Activity (HepG2 [11])?
Answer: Active

Question: And the Activity (HepG2 [12])?
Answer: 40.6%

Question: What about the Activity [13] of the same molecule?
Answer: Active

Question: What about the Activity [14] of the same molecule?
Answer: Active

Question: And the CI [15]?
Answer: 0.58

Question: What about the CI [16] of the same molecule?
Answer: 0.46

Question: And the Activity (HepG2 [17])?
Answer: Active

Question: And the Activity [18]?
Answer: 28.7%

Question: And the Activity [19]?
Answer: Active

Question: And the Activity (HepG2 [20])?
Answer: Active

Question: And the Activity (HepG2 [21])?
Answer: Active

Question: And the Activity (HepG2 [22])?
Answer: Active

Question: And the Activity [23]?
Answer: Active

Question: What about the Activity [24] of the same molecule?
Answer: 2.63%

Question: What about the Activity [25] of the same molecule?
Answer: 59.5%

Question: What about the IC50 [26] of the same molecule?
Answer: 4.01 µM

Question: What about the Activity (HepG2 [27]) of the same molecule?
Answer: 5.28%

Question: And the Activity (HepG2 [28])?
Answer: Active

Question: What about the Activity (HepG2 [29]) of the same molecule?
Answer: Active

Question: And the Activity (HepG2 [30])?
Answer: 7.52%

Question: What about the Activity (HepG2 [31]) of the same molecule?
Answer: Active

Question: And the Activity [32]?
Answer: Active

Question: And the Activity (HepG2 [33])?
Answer: Active

Question: And the Activity [34]?
Answer: 38.4%

Question: And the Activity (HepG2 [35])?
Answer: 27.9%

Question: And the Activity (HepG2 [36])?
Answer: Active

Question: What about the Activity [37] of the same molecule?
Answer: Active

Question: What about the CI [38] of the same molecule?
Answer: 0.67

Question: What about the Activity (HepG2 [39]) of the same molecule?
Answer: Active

Question: What about the CI [40] of the same molecule?
Answer: 0.58

Question: And the Activity [41]?
Answer: Active

Question: And the CI [42]?
Answer: 0.52

Question: And the Activity (HepG2 [43])?
Answer: Active

Question: And the Activity [44]?
Answer: Active

Question: And the CI [45]?
Answer: 0.56

Question: What about the Activity (HepG2 [46]) of the same molecule?
Answer: Active

Question: What about the Activity [47] of the same molecule?
Answer: 68.7%
